Source: ChEMBL document CHEMBL6153066, “Discovery of CZY43 as a new small-molecule degrader of pseudokinase HER3” (Eur J Med Chem, 2025)
Active and inactive are the calls of the source. No cut-off for these calls is given here.

How the values were obtained:
[1] = biological target: T1, Receptor tyrosine-protein kinase erbB-3 (Homo sapiens, UniProt P21860); test: Induction of hydrophobic tag-mediated HER3 degradation in human SK-BR-3 cells incubated for 8 hrs by immunoblot analysis; assay type: cell-based
[2] = biological target: T1, Receptor tyrosine-protein kinase erbB-3; test: Induction of hydrophobic tag-mediated HER3 degradation in human SK-BR-3 cells at 1 uM incubated for 8 hrs in presence of chloroquine by immunoblot analysis; assay type: cell-based
SK-BR-3 [3] = test: Inhibition of cell adhesion in human SK-BR-3 cells upto 2000 nM incubated for 8 hrs by crystal violet staining based analysis; assay type: functional
[4] = biological target: T1, Receptor tyrosine-protein kinase erbB-3; test: Induction of hydrophobic tag-mediated HER3 degradation in human A549 cells upto 2000 nM incubated for 8 hrs by immunoblot analysis; assay type: cell-based
[5] = biological target: T1, Receptor tyrosine-protein kinase erbB-3; test: Induction of HER3 ubiquitination in human SK-BR-3 cells at 1 uM incubated for 8 hrs by Co-IP method; assay type: cell-based
[6] = biological target: T1, Receptor tyrosine-protein kinase erbB-3; test: Induction of hydrophobic tag-mediated HER3 degradation in human SK-BR-3 cells assessed as decrease in p-AKT level upto 2000 nM incubated for 8 hrs by immunoblot analysis; assay type: cell-based
SK-BR-3 [7] = test: Induction of autophagy in human SK-BR-3 cells assessed as increase in LC3B-II level upto 2 uM incubated for 8 hrs by Western blot analysis; assay type: functional, cell-based
[8] = biological target: T1, Receptor tyrosine-protein kinase erbB-3; test: Induction of hydrophobic tag-mediated HER3 degradation in human MDA-MB-453 cells upto 2000 nM incubated for 8 hrs by immunoblot analysis; assay type: cell-based
[9] = biological target: T1, Receptor tyrosine-protein kinase erbB-3; test: Induction of hydrophobic tag-mediated HER3 degradation in human SK-BR-3 cells assessed as decrease in HER3 level upto 2000 nM incubated for 8 hrs by immunoblot analysis; assay type: cell-based
SK-BR-3 [10] = test: Antiproliferative activity against human SK-BR-3 cells incubated for 72 hrs by CCK8 assay; assay type: functional, cell-based; conditions: SK-BR-3, 72 h
[11] = biological target: T1, Receptor tyrosine-protein kinase erbB-3; test: Induction of hydrophobic tag-mediated HER3 degradation in human SK-BR-3 cells at 1 uM incubated for 8 hrs in presence of MG132 by immunoblot analysis; assay type: cell-based
[12] = biological target: T1, Receptor tyrosine-protein kinase erbB-3; test: Induction of Hsp90 binding to HER3 in human SK-BR-3 cells at 1 uM incubated for 8 hrs by Co-IP method; assay type: cell-based
[13] = biological target: T1, Receptor tyrosine-protein kinase erbB-3; test: Induction of hydrophobic tag-mediated HER3 degradation in human SK-BR-3 cells at 1000 nM by immunoblot analysis; assay type: cell-based; conditions: time <= 24.0 hrs

T1 sequence (P21860 whole entry): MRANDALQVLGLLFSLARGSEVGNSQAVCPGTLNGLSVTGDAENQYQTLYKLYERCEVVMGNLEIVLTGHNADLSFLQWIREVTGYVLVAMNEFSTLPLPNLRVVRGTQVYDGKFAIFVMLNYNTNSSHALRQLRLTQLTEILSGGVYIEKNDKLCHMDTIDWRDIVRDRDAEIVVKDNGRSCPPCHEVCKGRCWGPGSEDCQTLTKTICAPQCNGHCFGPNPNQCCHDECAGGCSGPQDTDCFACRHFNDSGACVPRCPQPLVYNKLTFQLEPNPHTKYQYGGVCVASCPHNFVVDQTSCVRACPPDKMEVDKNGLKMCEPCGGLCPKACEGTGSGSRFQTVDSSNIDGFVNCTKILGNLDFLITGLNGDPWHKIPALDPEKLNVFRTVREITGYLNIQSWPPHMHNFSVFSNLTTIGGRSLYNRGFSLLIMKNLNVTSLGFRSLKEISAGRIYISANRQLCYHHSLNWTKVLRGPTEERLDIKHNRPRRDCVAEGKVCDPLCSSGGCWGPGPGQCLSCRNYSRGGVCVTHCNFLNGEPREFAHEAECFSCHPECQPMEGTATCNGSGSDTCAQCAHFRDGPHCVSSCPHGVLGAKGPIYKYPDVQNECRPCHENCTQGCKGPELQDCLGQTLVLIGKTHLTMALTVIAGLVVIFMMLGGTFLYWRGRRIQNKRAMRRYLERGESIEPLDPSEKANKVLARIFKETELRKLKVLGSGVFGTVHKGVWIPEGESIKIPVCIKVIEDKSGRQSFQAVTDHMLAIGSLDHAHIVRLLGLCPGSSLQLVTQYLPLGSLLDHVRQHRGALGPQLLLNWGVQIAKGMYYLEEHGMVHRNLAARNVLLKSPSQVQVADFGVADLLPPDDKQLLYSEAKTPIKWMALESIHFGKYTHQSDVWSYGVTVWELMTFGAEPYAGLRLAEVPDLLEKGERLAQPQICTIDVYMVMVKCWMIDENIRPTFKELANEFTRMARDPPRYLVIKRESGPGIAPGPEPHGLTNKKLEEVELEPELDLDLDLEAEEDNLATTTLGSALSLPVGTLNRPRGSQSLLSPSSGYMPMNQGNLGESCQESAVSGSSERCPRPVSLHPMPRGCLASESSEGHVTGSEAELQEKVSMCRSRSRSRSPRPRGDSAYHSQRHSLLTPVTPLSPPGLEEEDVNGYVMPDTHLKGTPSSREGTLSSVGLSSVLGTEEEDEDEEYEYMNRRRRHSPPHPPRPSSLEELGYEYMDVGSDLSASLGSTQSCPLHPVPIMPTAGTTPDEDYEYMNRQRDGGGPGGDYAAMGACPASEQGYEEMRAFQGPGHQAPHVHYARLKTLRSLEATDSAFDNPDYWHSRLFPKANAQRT

| DC50 [1] [nM] | Activity ([1]; dose <= 2000.0 nM) | Activity [2] | Activity [4] | Activity [5] | Activity [8] | IC50 (SK-BR-3 [10]) [nM] | Activity [11] | Activity [12] | Activity [13] | Structure (SMILES) | inhibition (SK-BR-3 [3]) | Activity [6] | Activity (SK-BR-3 [7]) | Activity [9] |
| --- | --- | --- | --- | --- | --- | --- | --- | --- | --- | --- | --- | --- | --- | --- |
| 559 | Dose-dependent-effect | inactive | Active | Active | Active | 530 | Active | Active | Time-dependent-effect | COc1cc(Nc2c(C#N)cnc3cc(OCCCN4CCC5(CC4)CCN(CCC46C[C@H]7C[C@@H](C4)C[C@@H](C6)C7)CC5)c(OC)cc23)c(Cl)cc1Cl | Active | Active; Exhibited As More Potent Than Bosutinib | Active | Active; Exhibited As More Potent Than Bosutinib |
| – | – | – | – | – | – | 5140 | – | – | – | COc1cc(Nc2c(C#N)cnc3cc(OCCCN4CCN(C)CC4)c(OC)cc23)c(Cl)cc1Cl [BOSUTINIB] | – | – | – | – |
